Laboratory results: ChEMBL document CHEMBL1201862, “PubChem BioAssay data set” (2004)
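Values below derive from 48-hour exposures of cells grown in 96-well plates, with endpoints linearly interpolated between the two concentrations bracketing the appropriate inhibition level. GI50 marks 50% less growth.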 Calls of active or inactive are those of the source. No stated cut-off is given here; in the data, active = GI50 up to about 1.1 µM and inactive = higher.

What was measured:
Assay in all cases: NCI-60 cell line screen, 48 h
SF-268 = test system: SF-268
Malme-3M = test system: Malme-3M
SNB-19 = test system: SNB-19
RPMI-8226 = test system: RPMI-8226
OVCAR-4 = test system: OVCAR-4
TK-10 = test system: TK-10
HOP-92 = test system: HOP-92
OVCAR-5 = test system: OVCAR-5
UACC-62 = test system: UACC-62
UACC-257 = test system: UACC-257
HOP-62 = test system: HOP-62
BT-549 = test system: BT-549
M14 = test system: M14
SK-MEL-2 = test system: SK-MEL-2
HCT-116 = test system: HCT-116
SNB-75 = test system: SNB-75
OVCAR-3 = test system: OVCAR-3
SK-MEL-5 = test system: SK-MEL-5
K562 = test system: K562
CCRF-CEM = test system: CCRF-CEM

Row | SMILES | GI50 (SF-268) | GI50 (Malme-3M) | GI50 (SNB-19) | GI50 (RPMI-8226) | GI50 (OVCAR-4) | GI50 (TK-10) | GI50 (HOP-92) | GI50 (OVCAR-5) | GI50 (UACC-62) | GI50 (UACC-257) | GI50 (HOP-62) | GI50 (BT-549) | GI50 (M14) | GI50 (SK-MEL-2) | GI50 (HCT-116) | GI50 (SNB-75) | GI50 (OVCAR-3) | GI50 (SK-MEL-5) | GI50 (K562) | GI50 (CCRF-CEM)
1 | Clc1ccc(CN2CCCN(Cc3ccc(Cl)cc3)C2c2cc3ccccc3c3ccccc23)cc1 | 44.3 µM (inactive) | 18.4 µM (inactive) | > 100 µM (inactive) | 45.1 µM (inactive) | 55.6 µM (inactive) | 78.5 µM (inactive) | 74 µM (inactive) | 36.9 µM (inactive) | 18.7 µM (inactive) | 22.8 µM (inactive) | > 100 µM (inactive) | 38.3 µM (inactive) | 18.7 µM (inactive) | 25.5 µM (inactive) | 44.8 µM (inactive) | 22.4 µM (inactive) | 57.9 µM (inactive) | 17.8 µM (inactive) | – | –
2 | CC1=NN(C(=O)CSc2nnc(SCC(=O)N3N=C(C)CC3(O)c3ccccc3)s2)C(O)(c2ccccc2)C1 (stereo not drawn) | 12.8 µM (inactive) | 99.1 µM (inactive) | 60.4 µM (inactive) | 15.5 µM (inactive) | 32.9 µM (inactive) | 54.3 µM (inactive) | 33.7 µM (inactive) | 82.4 µM (inactive) | 18.6 µM (inactive) | 43.8 µM (inactive) | 51.3 µM (inactive) | 15.5 µM (inactive) | 16.1 µM (inactive) | 29.2 µM (inactive) | 30.9 µM (inactive) | – | 41.1 µM (inactive) | 28.2 µM (inactive) | 32.6 µM (inactive) | 18.7 µM (inactive)
3 | COc1ccccc1N1C(=O)CSC1c1c[nH]c2ccccc12 (stereo not drawn) | 42.8 µM (inactive) | – | > 100 µM (inactive) | > 100 µM (inactive) | > 100 µM (inactive) | > 100 µM (inactive) | > 100 µM (inactive) | > 100 µM (inactive) | > 100 µM (inactive) | > 100 µM (inactive) | > 100 µM (inactive) | > 100 µM (inactive) | > 100 µM (inactive) | > 100 µM (inactive) | > 100 µM (inactive) | 27.6 µM (inactive) | > 100 µM (inactive) | > 100 µM (inactive) | > 100 µM (inactive) | –
4 | O=S1(=O)c2cnccc2N=C(NCc2cccc3ccccc23)N1c1ccccc1 | > 100 µM (inactive) | > 100 µM (inactive) | > 100 µM (inactive) | 13.6 µM (inactive) | > 91.2 µM (inactive) | 64.9 µM (inactive) | > 41.2 µM (inactive) | > 100 µM (inactive) | > 22.4 µM (inactive) | > 100 µM (inactive) | > 100 µM (inactive) | > 100 µM (inactive) | > 83.9 µM (inactive) | – | 9.35 µM (inactive) | > 100 µM (inactive) | > 100 µM (inactive) | > 95.9 µM (inactive) | 29.4 µM (inactive) | 2.51 µM (inactive)
5 | Cc1ncc(-c2nnnn2-c2ccccc2)c(C(=O)O)n1 | > 100 µM (inactive) | > 100 µM (inactive) | > 100 µM (inactive) | > 100 µM (inactive) | – | > 100 µM (inactive) | > 100 µM (inactive) | > 100 µM (inactive) | > 100 µM (inactive) | > 100 µM (inactive) | > 100 µM (inactive) | > 100 µM (inactive) | > 100 µM (inactive) | 33.3 µM (inactive) | > 100 µM (inactive) | > 100 µM (inactive) | > 100 µM (inactive) | > 100 µM (inactive) | > 100 µM (inactive) | > 100 µM (inactive)
6 | CC(=O)O[C@@H]1C[C@]2(C(=O)c3ccccc3)C(=O)C(=O)S[C@]12c1ccccc1 | 34.4 µM (inactive) | > 100 µM (inactive) | 39.8 µM (inactive) | 30.4 µM (inactive) | 56.1 µM (inactive) | 55.7 µM (inactive) | 47.8 µM (inactive) | > 100 µM (inactive) | 39.7 µM (inactive) | 55.8 µM (inactive) | 61 µM (inactive) | 44.1 µM (inactive) | 38.4 µM (inactive) | 38.5 µM (inactive) | 46.6 µM (inactive) | 44 µM (inactive) | 69.8 µM (inactive) | 32.4 µM (inactive) | 24.8 µM (inactive) | –
7 | O=c1c2ccccc2nc(N/N=C/c2ccccc2O)n1-c1ccccc1 | 2.13 µM (inactive) | 12.2 µM (inactive) | 56.5 µM (inactive) | – | 5.18 µM (inactive) | 6.43 µM (inactive) | 13 µM (inactive) | 7.18 µM (inactive) | 2.77 µM (inactive) | 5.04 µM (inactive) | 5.25 µM (inactive) | 41.5 µM (inactive) | 4.52 µM (inactive) | 7.67 µM (inactive) | 2.88 µM (inactive) | 11 µM (inactive) | 3.49 µM (inactive) | 4.56 µM (inactive) | 4.5 µM (inactive) | 3.27 µM (inactive)
8 | COC(=O)[C@H]1NC(=O)CCSSC1(C)C | > 100 µM (inactive) | > 100 µM (inactive) | > 100 µM (inactive) | > 100 µM (inactive) | > 100 µM (inactive) | > 100 µM (inactive) | > 100 µM (inactive) | > 100 µM (inactive) | > 100 µM (inactive) | > 100 µM (inactive) | > 100 µM (inactive) | > 100 µM (inactive) | > 100 µM (inactive) | > 100 µM (inactive) | > 100 µM (inactive) | – | > 100 µM (inactive) | > 100 µM (inactive) | > 100 µM (inactive) | > 100 µM (inactive)
9 | Cc1ccc(NC2=CC(=O)C(NO)c3ccccc32)cc1 (stereo not drawn) | 3.32 µM (inactive) | – | 3.18 µM (inactive) | – | 2.99 µM (inactive) | 16.8 µM (inactive) | 2.7 µM (inactive) | 8.59 µM (inactive) | 1.51 µM (inactive) | 1.73 µM (inactive) | 3.39 µM (inactive) | 3.66 µM (inactive) | 2.94 µM (inactive) | 2.23 µM (inactive) | 2.47 µM (inactive) | 3.37 µM (inactive) | 0.61 µM (active) | 1.49 µM (inactive) | – | –
10 | CC(C)CC(NP(=O)(O)OC1OC(C)C(O)C(O)C1O)C(=O)NC(Cc1c[nH]c2ccccc12)C(=O)O (stereo not drawn) | > 100 µM (inactive) | > 100 µM (inactive) | > 100 µM (inactive) | > 100 µM (inactive) | > 100 µM (inactive) | – | > 100 µM (inactive) | > 100 µM (inactive) | > 100 µM (inactive) | > 100 µM (inactive) | > 100 µM (inactive) | > 100 µM (inactive) | > 100 µM (inactive) | – | > 100 µM (inactive) | > 100 µM (inactive) | > 100 µM (inactive) | > 100 µM (inactive) | > 100 µM (inactive) | > 100 µM (inactive)
11 | COc1ccc(-c2oc3c(OC)c(OC)c(OC)c(OC)c3c(=O)c2OC)cc1OC [3,5,6,7,8,3',4'-HEPTAMETHOXYFLAVONE] | 5.45 µM (inactive) | 28 µM (inactive) | > 100 µM (inactive) | 12.4 µM (inactive) | 47.2 µM (inactive) | 61 µM (inactive) | 0.0481 µM (active) | > 100 µM (inactive) | 48.3 µM (inactive) | 53.1 µM (inactive) | 14.5 µM (inactive) | 50.7 µM (inactive) | 41.4 µM (inactive) | 29.6 µM (inactive) | 47.4 µM (inactive) | – | 18.7 µM (inactive) | 19.3 µM (inactive) | 31.5 µM (inactive) | 25.6 µM (inactive)
